Results: ChEMBL document CHEMBL1909046, “DrugMatrix in vitro pharmacology data”

How the values were obtained:
[1] = DRUGMATRIX: Serotonin (5-Hydroxytryptamine) 5-HT3 radioligand binding (ligand: [3H] GR-65630); assay type: cell membranes, Membrane; details: hek293; Not Active = under 50% inhibition at 10 µM
[2] = DRUGMATRIX: Phosphodiesterase PDE4 enzyme inhibition (substrate: [3H]cAMP + cAMP); details: u-937; Not Active = under 50% inhibition at 10 µM
[3] = DRUGMATRIX: Sodium/nucleoside co-transporter radioligand binding (ligand: nitrobenzylthioinosine); assay type: cell membranes, Cavia porcellus, Dunkin-Hartley, Cerebral cortex, Membrane; details: Not Active = under 50% inhibition at 10 µM
[4] = DRUGMATRIX: Glutamate, Kainate radioligand binding (ligand: [3H] Kainic acid); assay type: cell membranes, Rattus norvegicus, Wistar, Brain, Membrane; details: Not Active = under 50% inhibition at 10 µM
[5] = DRUGMATRIX: Atrial Natriuretic Factor (ANF) radioligand binding (ligand: [125I] ANF (rat)); assay type: cell membranes, Cavia porcellus, Dunkin-Hartley, Adrenal gland, Membrane; details: Not Active = under 50% inhibition at 10 µM
Cytochrome P450 2C19 = Cytochrome P450 2C19 (Homo sapiens, UniProt P33261); details: bti-tn-5b1-4; note: in other assays of this panel Not Active means under 50% inhibition at 10 µM
[6] = DRUGMATRIX: beta-Lactamase enzyme inhibition (substrate: Nitrocefin); design: species or system Bacillus cereus; details: Not Active = under 50% inhibition at 10 µM
[7] = DRUGMATRIX: GABAA, Muscimol, Central radioligand binding (ligand: [3H] Muscimol); assay type: cell membranes, Rattus norvegicus, Wistar, Brain, Membrane; details: Not Active = under 50% inhibition at 10 µM
[8] = DRUGMATRIX: Nicotinic Acetylcholine radioligand binding (ligand: [125I] Epibatidine); assay type: cell membranes, Membrane; details: imr-32; Not Active = under 50% inhibition at 10 µM

Cytochrome P450 2C19, sequence (P33261 whole entry): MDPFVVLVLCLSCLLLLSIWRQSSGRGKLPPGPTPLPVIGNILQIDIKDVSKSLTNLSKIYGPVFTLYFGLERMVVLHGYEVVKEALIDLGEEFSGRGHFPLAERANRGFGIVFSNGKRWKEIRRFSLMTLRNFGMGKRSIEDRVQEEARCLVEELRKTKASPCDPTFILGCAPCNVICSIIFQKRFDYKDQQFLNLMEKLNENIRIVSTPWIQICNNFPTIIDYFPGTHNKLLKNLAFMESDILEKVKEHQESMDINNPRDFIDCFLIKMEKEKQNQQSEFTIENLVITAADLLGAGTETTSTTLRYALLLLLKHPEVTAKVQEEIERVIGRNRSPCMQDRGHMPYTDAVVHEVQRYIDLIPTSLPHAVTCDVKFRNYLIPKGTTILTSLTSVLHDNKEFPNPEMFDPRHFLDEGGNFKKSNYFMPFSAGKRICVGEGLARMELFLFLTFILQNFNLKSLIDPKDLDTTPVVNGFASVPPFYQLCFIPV

ZIRCONIUM(IV) CHLORIDE
Not Active: IC50 [1] | Ki [1] | IC50 [2] | Ki [2] | IC50 [3] | Ki [3] | IC50 [4] | Ki [4] | IC50 [5] | Ki [5] | IC50 (Cytochrome P450 2C19) | Ki (Cytochrome P450 2C19) | IC50 [6] | Ki [6] | IC50 [7] | Ki [7] | IC50 [8] | Ki [8]

O=C(O)c1ccccc1O [SALICYLIC ACID]
Not Active: IC50 [1] | Ki [1] | IC50 [2] | Ki [2] | IC50 [3] | Ki [3] | IC50 [4] | Ki [4] | IC50 [5] | Ki [5] | IC50 (Cytochrome P450 2C19) | Ki (Cytochrome P450 2C19) | IC50 [6] | Ki [6] | IC50 [7] | Ki [7] | IC50 [8] | Ki [8]
